# Laboratory results as given in ChEMBL document CHEMBL1201862, “PubChem BioAssay data set” (2004).
#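 Briefly, cells in 96-well plates were exposed to five compound concentrations for 48 h, and endpoints were estimated by linear interpolation. Abbreviation: GI50, concentration required for 50% inhibition of growth.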 Activity calls are given as the source filed them. No stated cut-off is given here; in the data, active = GI50 up to about 1.1 µM and inactive = higher.
# Experiments:
# Assay in all cases: DTP human tumour cell line panel, 48 h
# [1] = test system: 786-0
# [2] = test system: A498
# [3] = test system: A549
# [4] = test system: ACHN
# [5] = test system: CAKI-1
# [6] = test system: CCRF-CEM
# [7] = test system: DLD-1
# [8] = test system: DMS-114
# [9] = test system: DMS-273
# [10] = test system: EKVX
# [11] = test system: HCC 2998
# [12] = test system: HCT-116
# [13] = test system: HCT-15
# [14] = test system: HL-60
# [15] = test system: HOP-62
# [16] = test system: HOP-92
# [17] = test system: HT-29
# [18] = test system: IGROV-1
# [19] = test system: K562
# [20] = test system: KM-20L2
# [21] = test system: KM12
# [22] = test system: LOX IMVI
# [23] = test system: M14
# [24] = test system: M19-MEL
# [25] = test system: MOLT-4
# [26] = test system: Malme-3M
# [27] = test system: NCI-H226
# [28] = test system: NCI-H23
# [29] = test system: NCI-H460
# [30] = test system: NCI-H522
# [31] = test system: OVCAR-3
# [32] = test system: OVCAR-4
# [33] = test system: OVCAR-5
# [34] = test system: OVCAR-8
# [35] = test system: RPMI-8226
# [36] = test system: RXF 393
# [37] = test system: SF-268
# [38] = test system: SF-295
# [39] = test system: SF-539
# [40] = test system: SK-MEL-28
# [41] = test system: SK-MEL-2
# [42] = test system: SK-MEL-5
# [43] = test system: SK-OV-3
# [44] = test system: SN12C
# [45] = test system: SNB-19
# [46] = test system: SNB-75
# [47] = test system: SNB-78
# [48] = test system: SW-620
# [49] = test system: TK-10
# [50] = test system: U-251
# [51] = test system: UACC-257
# [52] = test system: UACC-62
# [53] = test system: UO-31
# [54] = test system: COLO 205
# [55] = test system: HOP-18
# [56] = test system: LXFL 529
structure (smiles),measurement,setting,value
C[n+]1c2ccccc2c(CNc2ccc(S(=O)(=O)N=C(N)N)cc2)c2ccccc21,GI50,[1],6.84 µM (inactive)
same,GI50,[2],17.4 µM (inactive)
same,GI50,[3],6.17 µM (inactive)
same,GI50,[4],6.95 µM (inactive)
same,GI50,[5],1.72 µM (inactive)
same,GI50,[6],1.45 µM (inactive)
same,GI50,[7],17.3 µM (inactive)
same,GI50,[8],2.65 µM (inactive)
same,GI50,[9],2.94 µM (inactive)
same,GI50,[10],21 µM (inactive)
same,GI50,[11],15.1 µM (inactive)
same,GI50,[12],5.78 µM (inactive)
same,GI50,[13],10.2 µM
same,GI50,[14],1.46 µM (inactive)
same,GI50,[15],4.09 µM (inactive)
same,GI50,[16],5.24 µM (inactive)
same,GI50,[17],20.2 µM (inactive)
same,GI50,[18],16.3 µM (inactive)
same,GI50,[19],6.78 µM (inactive)
same,GI50,[20],13.6 µM (inactive)
same,GI50,[21],13.2 µM (inactive)
same,GI50,[22],3.29 µM (inactive)
same,GI50,[23],6.05 µM (inactive)
same,GI50,[24],14.5 µM (inactive)
same,GI50,[25],0.311 µM (active)
same,GI50,[26],13.6 µM (inactive)
same,GI50,[27],1.6 µM (inactive)
same,GI50,[28],5.31 µM (inactive)
same,GI50,[29],0.61 µM (active)
same,GI50,[30],9.77 µM (inactive)
same,GI50,[31],19.8 µM (inactive)
same,GI50,[32],29.1 µM (inactive)
same,GI50,[33],43.7 µM (inactive)
same,GI50,[34],9.66 µM (inactive)
same,GI50,[35],2.7 µM (inactive)
same,GI50,[36],15.1 µM (inactive)
same,GI50,[37],7.06 µM (inactive)
same,GI50,[38],3.6 µM (inactive)
same,GI50,[39],3.24 µM (inactive)
same,GI50,[40],12.4 µM (inactive)
same,GI50,[41],24.8 µM (inactive)
same,GI50,[42],6.92 µM (inactive)
same,GI50,[43],46 µM (inactive)
same,GI50,[44],3.16 µM (inactive)
same,GI50,[45],4.05 µM (inactive)
same,GI50,[46],4.13 µM (inactive)
same,GI50,[47],19.9 µM (inactive)
same,GI50,[48],6.95 µM (inactive)
same,GI50,[49],29.4 µM (inactive)
same,GI50,[50],5.14 µM (inactive)
same,GI50,[51],16 µM (inactive)
same,GI50,[52],10.4 µM (inactive)
same,GI50,[53],14.4 µM (inactive)
COc1ccc(/C=N/N=C(\N)NO)c(OC)c1,GI50,[1],57.5 µM (inactive)
same,GI50,[3],31.8 µM (inactive)
same,GI50,[4],21 µM (inactive)
same,GI50,[5],19.2 µM (inactive)
same,GI50,[6],79.8 µM (inactive)
same,GI50,[54],49.7 µM (inactive)
same,GI50,[7],> 100 µM (inactive)
same,GI50,[8],18.1 µM (inactive)
same,GI50,[10],38.3 µM (inactive)
same,GI50,[11],12.2 µM (inactive)
same,GI50,[12],52 µM (inactive)
same,GI50,[13],26.9 µM
same,GI50,[55],14.6 µM (inactive)
same,GI50,[15],16.2 µM (inactive)
same,GI50,[16],11.2 µM (inactive)
same,GI50,[18],> 100 µM (inactive)
same,GI50,[19],15.7 µM (inactive)
same,GI50,[21],30.3 µM (inactive)
same,GI50,[22],24.7 µM (inactive)
same,GI50,[56],8.81 µM (inactive)
same,GI50,[24],24.5 µM (inactive)
same,GI50,[25],77.6 µM (inactive)
same,GI50,[26],68.7 µM (inactive)
same,GI50,[27],34.1 µM (inactive)
same,GI50,[28],46.7 µM (inactive)
same,GI50,[30],> 10 µM (inactive)
same,GI50,[31],37.7 µM (inactive)
same,GI50,[32],> 100 µM (inactive)
same,GI50,[33],9.77 µM (inactive)
same,GI50,[34],61 µM (inactive)
same,GI50,[35],84.3 µM (inactive)
same,GI50,[36],54 µM (inactive)
same,GI50,[37],48.3 µM (inactive)
same,GI50,[38],16.1 µM (inactive)
same,GI50,[39],23.3 µM (inactive)
same,GI50,[40],> 100 µM (inactive)
same,GI50,[41],52.4 µM (inactive)
same,GI50,[42],59.8 µM (inactive)
same,GI50,[43],75.2 µM (inactive)
same,GI50,[44],67.8 µM (inactive)
same,GI50,[45],> 100 µM (inactive)
same,GI50,[47],> 100 µM (inactive)
same,GI50,[48],45.4 µM (inactive)
same,GI50,[50],> 100 µM (inactive)
same,GI50,[51],80.7 µM (inactive)
same,GI50,[52],27.9 µM (inactive)
same,GI50,[53],13.8 µM (inactive)
COc1cc([C@@H]2c3cc4c(cc3[C@@H](NC(=O)c3cccc(F)c3)C3COC(=O)[C@@H]32)OCO4)cc(OC)c1O (stereo partly specified),GI50,[1],0.441 µM (active)
same,GI50,[2],1.27 µM (inactive)
same,GI50,[3],0.0327 µM (active)
same,GI50,[4],0.125 µM (active)
same,GI50,[5],0.646 µM (active)
same,GI50,[6],0.111 µM (active)
same,GI50,[54],3.52 µM (inactive)
same,GI50,[7],2.32 µM (inactive)
same,GI50,[8],0.607 µM (active)
same,GI50,[9],0.153 µM (active)
same,GI50,[10],2.1 µM (inactive)
same,GI50,[11],2.66 µM (inactive)
same,GI50,[12],1.76 µM (inactive)
same,GI50,[13],1.45 µM
same,GI50,[14],0.111 µM (active)
same,GI50,[55],> 100 µM (inactive)
same,GI50,[15],0.195 µM (active)
same,GI50,[16],2.74 µM (inactive)
same,GI50,[17],2.05 µM (inactive)
same,GI50,[18],1.19 µM (inactive)
same,GI50,[19],1.61 µM (inactive)
same,GI50,[20],1.68 µM (inactive)
same,GI50,[21],1.76 µM (inactive)
same,GI50,[22],0.698 µM (active)
same,GI50,[56],5.5 µM (inactive)
same,GI50,[23],1.26 µM (inactive)
same,GI50,[24],3.22 µM (inactive)
same,GI50,[25],< 0.01 µM (active)
same,GI50,[26],1.29 µM (inactive)
same,GI50,[27],0.207 µM (active)
same,GI50,[28],0.522 µM (active)
same,GI50,[29],< 0.01 µM (active)
same,GI50,[30],1.4 µM (inactive)
same,GI50,[31],3.6 µM (inactive)
same,GI50,[32],38.5 µM (inactive)
same,GI50,[33],2.21 µM (inactive)
same,GI50,[34],1.76 µM (inactive)
same,GI50,[35],0.466 µM (active)
same,GI50,[36],4.3 µM (inactive)
same,GI50,[37],1.61 µM (inactive)
same,GI50,[38],0.412 µM (active)
same,GI50,[39],0.356 µM (active)
same,GI50,[40],2.94 µM (inactive)
same,GI50,[41],4.46 µM (inactive)
same,GI50,[42],1.14 µM (inactive)
same,GI50,[43],1.26 µM (inactive)
same,GI50,[44],0.314 µM (active)
same,GI50,[45],0.664 µM (active)
same,GI50,[46],1.23 µM (inactive)
same,GI50,[47],15.5 µM (inactive)
same,GI50,[48],0.738 µM (active)
same,GI50,[49],3.35 µM (inactive)
same,GI50,[50],0.109 µM (active)
same,GI50,[51],7.19 µM (inactive)
same,GI50,[52],0.385 µM (active)
same,GI50,[53],2.99 µM (inactive)
Cc1ccc(C(=O)NC(C)(C)C)cc1/N=N/N(C)C,GI50,[1],> 100 µM (inactive)
same,GI50,[3],> 100 µM (inactive)
same,GI50,[4],> 100 µM (inactive)
same,GI50,[5],> 100 µM (inactive)
same,GI50,[7],> 100 µM (inactive)
same,GI50,[9],> 100 µM (inactive)
same,GI50,[10],> 100 µM (inactive)
same,GI50,[11],> 100 µM (inactive)
same,GI50,[12],> 100 µM (inactive)
same,GI50,[13],> 100 µM
same,GI50,[15],> 100 µM (inactive)
same,GI50,[16],> 100 µM (inactive)
same,GI50,[17],> 100 µM (inactive)
same,GI50,[18],> 100 µM (inactive)
same,GI50,[20],> 100 µM (inactive)
same,GI50,[21],> 100 µM (inactive)
same,GI50,[22],> 100 µM (inactive)
same,GI50,[56],> 100 µM (inactive)
same,GI50,[23],> 100 µM (inactive)
same,GI50,[28],> 100 µM (inactive)
same,GI50,[29],> 100 µM (inactive)
same,GI50,[30],50.5 µM (inactive)
same,GI50,[31],69.5 µM (inactive)
same,GI50,[32],> 100 µM (inactive)
same,GI50,[34],> 100 µM (inactive)
same,GI50,[37],42 µM (inactive)
same,GI50,[38],> 100 µM (inactive)
same,GI50,[39],> 100 µM (inactive)
same,GI50,[40],> 100 µM (inactive)
same,GI50,[41],> 100 µM (inactive)
same,GI50,[42],> 100 µM (inactive)
same,GI50,[44],> 100 µM (inactive)
same,GI50,[45],60.7 µM (inactive)
same,GI50,[47],> 100 µM (inactive)
same,GI50,[48],> 100 µM (inactive)
same,GI50,[49],> 100 µM (inactive)
same,GI50,[50],> 100 µM (inactive)
same,GI50,[51],> 100 µM (inactive)
same,GI50,[52],> 100 µM (inactive)
same,GI50,[53],> 100 µM (inactive)
